Assay results: PMC3991330 (Structure(London, England:1993), 2014)

Legend:
TIPΔD2 [1] = target: T1, TIPΔD2 (Methanopyrus kandleri, UniProt Q8TZC3, DEL143-290); experiment: native nanoelectrospray ionization mass spectrometry; format: binding; settings: tightly bound; co-purified from E. coli host
TIPΔD2 [2] = target: T1, TIPΔD2; experiment: malachite green phosphate release ATPase assay; format: biochemical
mkTIP49 = mkTIP49 (Methanopyrus kandleri, UniProt Q8TZC3); experiment: malachite green phosphate release ATPase assay; format: biochemical; settings: optimum 75-80 °C
native MS = target: the molecule itself; experiment: native MS

Q: How did the “native nanoelectrospray ionization mass spectrometry” value (TIPΔD2 [1]) turn out when `Nc1ncnc2c1ncn2[C@@H]1O[C@H](COP(=O)(O)OP(=O)(O)O)[C@@H](O)[C@H]1O` [ADP] was run?
A: The value was “Both full-length mkTIP49 and TIPΔD2 contain a tightly bound ADP cofactor”.

Q: With `Nc1ncnc2c1ncn2[C@@H]1O[C@H](COP(=O)(O)OP(=O)(O)OP(=O)(O)O)[C@@H](O)[C@H]1O` [ATP] as the molecule, how does the “malachite green phosphate release ATPase assay (PiColorLock ALS)” value (TIPΔD2 [2]) read?
A: The value was “deletion of D2 had a dramatic stimulating effect on the catalytic activity of mkTIP49”.

Q: What about the “malachite green phosphate release ATPase assay (PiColorLock ALS)” value (mkTIP49) of the same molecule?
A: The value was “we measured the intrinsic ATPase activity of mkTIP49 and mutants thereof”.

B1: Methanopyrus kandleri TIP49 protein (mkTIP49), wild type, full length (enzyme, UniProt Q8TZC3 1-455, looked up)
chain: MVEIKEIGEVSTEETSPGAHSHITGLGLDENLKAKPVGDGLVGQEEAREAAGIVVEMVKQGRRAGHGLLLVGPPGTGKTAIAYGIARELGEDVPFVSISGSEIYGTNLSKTEFLQQAIRRAIGVEFTETREVIEGKVESLEIERAKHPLSPYMEVPSGAIIELKTQDDHRRFKVPEEIAIQLVQAGVREGDVIQIDVESGHVTKLGRAKDALEEEEEELLGVHAVELPEGPVQKKKEIKRVVTLHDLDMANVRAGRLLGFREEEITDEIRQKVDERVQKMVDEGEASLVPGVLFIDEAHMLDIEAFAFLNRSLEEEIAPILVMATNRAMAKVRGTDEEAPHGIPGDLLDRMLIARTRPFERHEIHEIIGIRARVQDIQLTDEAHEYLTDLGEEKSIRYATRLLEPARIVAEKEGSEVVEKKHVERVEEVFTDVSDSVEYMERMRRELPVMKYLTG
Q: How did the “stoichiometry N” value (native MS) turn out when B1 was run?
A: The value was 12.

B2: isolated mkTIP49 D2 insertion domain (TIPins, residues 124–290) (domain or fragment, Methanopyrus kandleri, UniProt Q8TZC3 124-290, looked up)
chain: VEFTETREVIEGKVESLEIERAKHPLSPYMEVPSGAIIELKTQDDHRRFKVPEEIAIQLVQAGVREGDVIQIDVESGHVTKLGRAKDALEEEEEELLGVHAVELPEGPVQKKKEIKRVVTLHDLDMANVRAGRLLGFREEEITDEIRQKVDERVQKMVDEGEASLVP
Q: B2 was tested. Which “stoichiometry N” value (native MS) did it give?
A: Its value is 2.
